Test results from patent US10793543B2, “Selective C-KIT kinase inhibitor” (PRECEDO PHARMACEUTICALS CO., LTD, priority 2016, dated 2020).

Assays:
[1] = system: Tel-ABL-BaF3 cells (ABL WT); test: Cell proliferation, CCK-8, Tel-ABL-BaF3; type: cell-based; conditions: Mus musculus; Tel-ABL-BaF3, ABL WT, 72 hours, CCK-8; read-out: GI50
Excerpt: In addition, in the present example, further uses: mouse P210/BaF3 (stably expressing P210 Bcr-Abl mutant gene), mouse Tel-ABL-BaF3 (stably expressing wild-type ABL kinase), mouse Tel-cKit-BaF3 (stably expressing C-KITwild-type kinase), mouse Tel-cKit/V559D-BaF3 (stably expressing C-KIT V559D mutant kinase), mouse Tel-cKit/V559D/V654A-BaF3 (stably expressing C-KIT V559D/V654A mutant kinase), mouse Tel-cKit/N822K-BaF3 (stably expressing C-KIT N822K mutant kinase), mouse Tel-cKit/V654A-BaF3 (stably expressing C-KIT V654A mutant kinase), mouse Tel-cKit/L567P-BaF3 (stably expressing C-KIT L567P mutant kinase), mouse Tel-cKit/T670I-BaF3 (stably expressing C-KIT T670I mutant kinase), mouse Tel-PDGFRα-BaF3 (stably expressing PDGFRα kinase), mouse Tel-PDGFRβ-BaF3 (stably expressing PDGFRβ kinase), mouse Tel-VEGFR2-BaF3 (stably expressing VEGFR2 kinase), mouse Tel-RET-BaF3 (stably expressing RET kinase). […]
(§1) The cells were incubated for 72 hours, and then the number of viable cells was quantified with a microplate reader by using CCK-8 Cell Viability Assay Kit (purchased from Bestbio Company, Shanghai, China) (CCK-8 can be reduced by dehydrogenase in living cells to a highly water-soluble yellow formazan product, and the amount of formazan produced is proportional to the number of living cells).

[2] = system: Tel-PDGFRβ-BaF3 cells (PDGFRβ); test: Cell proliferation, CCK-8, Tel-PDGFRβ-BaF3; type: cell-based; conditions: Mus musculus, 72 hours
Excerpt: In addition, in the present example, further uses: mouse P210/BaF3 (stably expressing P210 Bcr-Abl mutant gene), mouse Tel-ABL-BaF3 (stably expressing wild-type ABL kinase), mouse Tel-cKit-BaF3 (stably expressing C-KITwild-type kinase), mouse Tel-cKit/V559D-BaF3 (stably expressing C-KIT V559D mutant kinase), mouse Tel-cKit/V559D/V654A-BaF3 (stably expressing C-KIT V559D/V654A mutant kinase), mouse Tel-cKit/N822K-BaF3 (stably expressing C-KIT N822K mutant kinase), mouse Tel-cKit/V654A-BaF3 (stably expressing C-KIT V654A mutant kinase), mouse Tel-cKit/L567P-BaF3 (stably expressing C-KIT L567P mutant kinase), mouse Tel-cKit/T670I-BaF3 (stably expressing C-KIT T670I mutant kinase), mouse Tel-PDGFRα-BaF3 (stably expressing PDGFRα kinase), mouse Tel-PDGFRβ-BaF3 (stably expressing PDGFRβ kinase), mouse Tel-VEGFR2-BaF3 (stably expressing VEGFR2 kinase), mouse Tel-RET-BaF3 (stably expressing RET kinase). The above cell lines were all constructed by our laboratory according to the following method: the kinase region sequences of human P210 Bcr-Abl, ABL, C-KIT, C-KIT V559D, C-KIT V559D/V654A, C-KIT N822K, C-KIT V654A, C-KIT L567P, C-KIT T670I, PDGFRα, PDGFRβ, VEGFR2, RET were amplified respectively by PCR, inserted respectively into MSCV-Puro vectors harboring N-terminal TEL fragment and/or NPM fragment and/or TPR fragment (Clontech), then the vectors were stably transfected into mouse BaF3 cells by retrovirus methods and growth factor IL-3 was removed, eventually obtaining cell lines that are transferred protein (P210 Bcr-Abl, ABL, C-KIT, C-KIT V559D, C-KIT V559D/V654A, C-KIT N822K, C-KIT V654A, C-KIT L567P, C-KIT T670I, PDGFRα, PDGFRβ, VEGFR2, RET)-dependent.
as §1

[3] = system: GIST-882 cells; test: Apoptosis, PARP and Caspase 3 cleavage by Western Blot, GIST-882; type: cell-based, human; conditions: GIST-882, 0.3 μM, 72 hours
Excerpt: The effects of different concentrations of drugs on protein cleavage of DNA repairase poly(ADP-ribose) polymerase (PARP) and Caspase (cysteinyl aspartate-specific proteinase) 3 at different periods of time were examined by Western Blot.

[4] = Acute toxicity assay in mice, single oral gavage; type: in vivo; conditions: for Number of death (number of death/number of animals in each group): female mice, 7 days observation
Procedure: 1. 4-6 week-old Bal b/c female mice were purchased from Shanghai SLAC Experimental Animal Co., Ltd., and were raised in a SPF-level laboratory. Drinking water and padding were both subjected to aseptic processing via high-pressure disinfection, and all operations of the mice were conducted under aseptic conditions; 10 healthy mice were selected, and were balanced and randomly divided into 5 groups according to their weights.
2. Specific Information for Administration
Route of administration: oral gavage
Observation period: 7 days.
3. Observation Indicators
Weighing frequency: upon grouping, the day of administration (D0) to the seventh day after administration (D7). Based on the mouse weight on D0 (starting value of 100%), the graph of the relative body weight over time was plotted.
3.2. Clinical Symptoms Observation
Strict observation was carried out within 4 hours after administration, and then observation was carried out twice a day for a total of 7 days. Observation was carried out and abnormal symptoms or phenomena in each of animals were recorded.
The number of animals died in each of dosage groups during the observation period.
Comprehensive determination was performed based on animal mortality, clinical symptoms and body weights.

[5] = system: cells expressing wild-type ABL and mutant Bcr-Abl kinase; test: Cell proliferation, text summary for ABL/Bcr-Abl cells; type: cell-based; conditions: summary of Table 2
Excerpt: In the present example, the following cells were used: chronic myelogenous leukemia cells K562 (expressing P210 Bcr-Abl mutant gene), human megakaryocytic leukemia cells MEG-01 (expressing P210 Bcr-Abl mutant gene), human peripheral blood basophilic leukemia cells Ku812 (expressing Bcr-Abl mutant gene) (all above cells purchased from ATCC, USA), human gastrointestinal stromal tumor cell lines GIST-T1 cells (expressing wild-type C-KIT gene) (purchased from Cosmo Bio Co., Ltd., Japan), human gastrointestinal stromal tumor cell lines GIST-882 cells (expressing wild-type C-KIT gene) (presented by the Professor Gray Lab, Dana-Farber Cancer Institute, Harvard University, USA), mouse pro-B cells BaF3 (purchased from ATCC, USA). […]
as §1

[6] = system: phosphorylation of C-KIT and pathway proteins in GIST-882 cells; test: Effects on cell signaling pathways (phosphorylation), GIST-882; type: cell-based, human; conditions: GIST-882, 0.1 μM, 2 hours
[7] = system: MEG-01 cells (P210 Bcr-Abl); test: Cancer cell proliferation, CCK-8, MEG-01; type: cell-based; conditions: Homo sapiens; MEG-01, P210 Bcr-Abl, 72 hours, CCK-8; read-out: GI50
Excerpt: In the present example, the following cells were used: chronic myelogenous leukemia cells K562 (expressing P210 Bcr-Abl mutant gene), human megakaryocytic leukemia cells MEG-01 (expressing P210 Bcr-Abl mutant gene), human peripheral blood basophilic leukemia cells Ku812 (expressing Bcr-Abl mutant gene) (all above cells purchased from ATCC, USA), human gastrointestinal stromal tumor cell lines GIST-T1 cells (expressing wild-type C-KIT gene) (purchased from Cosmo Bio Co., Ltd., Japan), human gastrointestinal stromal tumor cell lines GIST-882 cells (expressing wild-type C-KIT gene) (presented by the Professor Gray Lab, Dana-Farber Cancer Institute, Harvard University, USA), mouse pro-B cells BaF3 (purchased from ATCC, USA).
as §1

[8] = system: GIST-882 cells; test: Cell cycle distribution by flow cytometry, GIST-882; type: cell-based, human; conditions: GIST-882, treated 48 hours

Cc1ccc(NC(=O)c2cccc(C(F)(F)F)c2)cc1OC1CCN(C(=O)c2ccncc2)CC1 [Compound 4]
GI50 [1]: 5.06 µM | GI50 [2]: 0.027 µM | cleavage of PARP and Caspase 3 [3]: significant cleavage | Number of death (number of death/number of animals in each group) ([4]; 250 mg/kg single oral gavage): ♀: 0/2: | Number of death (number of death/number of animals in each group) ([4]; 500 mg/kg single oral gavage): ♀: 0/2: | effect on mouse weight ([4]; 1000 mg/kg single oral gavage): no significant effect on mouse weight | Number of death (number of death/number of animals in each group) ([4]; 1000 mg/kg single oral gavage): ♀: 0/2: | effect on mouse weight ([4]; 2000 mg/kg single oral gavage): decreased slightly | Number of death (number of death/number of animals in each group) ([4]; 2000 mg/kg single oral gavage): ♀: 0/2: | mouse organs on dissection ([4]; dissected after 7 days, single oral gavage): no obvious abnormalities | mice died ([4]; mouse, in vivo): no mouse died | maximum tolerated dosage ([4]; mouse, single oral gavage): 2000 mg/kg | GI50 [5]: > 5 µM | phosphorylation of C-KIT oncogenic protein [6]: significantly inhibiting | phosphorylation of proteins such as Stat5, AKT, ErK, S6K, S6, PDGFRα [6]: significant inhibitory effects | GI50 [7]: 7.43 µM | effect on cell cycle [8]: significantly blocked in the GO-G1 phase
